Several values for one entry are separate records, joined by “and”; a condition that tells them apart may be missing. Identical values can stand only once.
How the values were obtained:
[1] = Pharmacokinetics after oral administration of CK polymorphs in rats (20 mg/kg); assay type: in vivo, Sprague-Dawley rats; conditions: p.o. 20 mg/kg, individual rats 1-3
Description: All samples were analyzed with a triple quadrupole LC-MS/MS (API 4000 LC-MS/MS, AB Sciex, Framingham, MA, USA) coupled with an Agilent 1200 HPLC system (Agilent Technologies, Palo Alto, CA, USA). The MS was equipped with an electrospray system (ESI). The N2 gas temperature and ion-spray voltage were set to 550 °C and 4.5 kV, respectively. CK was measured in multiple reaction monitoring (MRM) mode using a negative electrospray ionization source at m/z 667.4 → 621.2 for CK (CID 25.6 v) and m/z 271.2 → 228.8 for internal standard (IS, (E)-5-(4-fluorostyryl)-2-isopropylbenzene-1,3-diol, Welichem Biotech Inc., Wayburne Drive Burnaby, BC, Canada) (CID 28.3 v) with a dwell time of 0.1 s.
Rats were divided randomly into 5 groups of six animals each (sex in half) and given 7 days to acclimatize to the facility before the experiments began. The four forms of CK were suspended in 0.5% sodium carboxymethyl cellulose (CMC-Na) solution and orally administered to rats at a dose of 20 mg/kg. A CK solution in a mixed solvent of dimethyl sulfoxide (DMSO)/castor oil/physiologic saline (3:5:92, v/v) was intravenously administered to the remaining group via the tail vein at a dose of 10 mg/kg. Blood samples were collected by retro-orbital puncture at the following times: 0.167, 0.333, 0.667, 1, 2, 3, 4, 6, 9, 12, and 24 h for the oral administration, and at 0.0083, 0.05, 0.133, 0.25, 0.5, 1, 2, 4, 6, and 9 h for the intravenous administration. Plasma samples were obtained by centrifuging a heparinized blood tube at 4000 rpm for 5 min and then stored at −70 °C until analysis.
The procedure for drug extraction from plasma samples was as follows: 0.2 mL acetonitrile, 0.2 mL plasma sample, and 10 μL IS (1 µg/mL) were added into a 1.5 mL Eppendorf-type tube. This mixture was vortexed for 1 min and then treated with 0.8 mL of methyl tert-butyl ether (MTBE) to precipitate the plasma proteins. After a mechanical vortex for 1 min and subsequent centrifugation (4000 rpm, 5 min), 0.8 mL of the supernatant was transferred and blow-dried with N2 at 40 °C in a water bath. Finally, the residue was dissolved in 120 μL of mobile phase, and then 10 μL was subjected to HPLC for analysis. […] Intra- and inter-day precision and accuracy never exceeded 15% by analyzing six replicate samples.
The CK pharmacokinetic parameters in rats, including the area under the curve (AUC(0–t) and AUC(0–∞)), mean residence time (MRT(0–t) and MRT(0–∞)), maximum concentration (Cmax), time to maximum concentration (Tmax), half-life (t1/2), apparent distribution volume (V), and total plasma clearance (CL), were derived from plasma concentration-time curves by using non-compartmental analysis (NCA) with DAS 2.0 software (Drug And Statistics, Mathematical Pharmacology Professional Committee of China, Shanghai, China). The absolute bioavailability (Fabs) was calculated from the dose-adjusted ratio of AUCp.o. to AUCi.v.. One-way analysis of variance (ANOVA) by SPSS 11.5 (SPSS Inc., Chicago, IL, USA) was conducted to compare the primary PK parameters.

[2] = system: carrageenan-induced acute paw inflammation; assay: Paw swelling test induced by carrageenan in rats; assay type: in vivo, Sprague-Dawley rats; parameters: paw volume: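 right hind paw volume measured with a plethysmometer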; conditions: for paw volume / paw edema: mean±SD of 6 rats; for edema inhibition: versus model group
Description: Rats were divided into 11 groups of six animals each (sex in half): the normal group, the model group, indomethacin group (1 mg/kg), and form I, II, III, IV groups (each form set 10 mg/kg and 20 mg/kg groups, respectively). Indomethacin and CK were ground and suspended in 0.5% CMC-Na solution. […] The same volume of saline was injected into the normal group. […] Paw edema and inhibitory rate were calculated as the following formula, and the differences among groups were compared with the t-test. Paw edema (%) = (Vn − V0)/V0 × 100%. Vn: paw volume at different time intervals after carrageenan injection. V0: paw volume before carrageenan injection. Inhibitory rate (%) = (Em − Ee)/Em × 100%. Em: paw edema of the model group. Ee: paw edema of the experimental group.

[3] = DSC thermal analysis of CK polymorphs; assay type: physicochemical; conditions: 20 K/min from 20 to 400 °C, dry nitrogen flow
Description: DSC measurements were performed on a DSC204 Phoenix calorimeter (NETZSCH, Selb, Germany) with a heating rate of 20 K/min from 20 to 400 °C. The dry nitrogen flow was about 50 mL/min. Data were analyzed using NETZSCH analysis software.

[4] = Pharmacokinetics after oral administration of CK polymorphs in rats (20 mg/kg); assay type: in vivo, Sprague-Dawley rats; conditions: for Fabs (absolute bioavailability): p.o. 20 mg/kg vs i.v. 10 mg/kg, dose-adjusted AUC ratio
[5] = 10 mg/kg p.o. qd 3 days, 3h after carrageenan, listed as From II
[6] = 10 mg/kg p.o. qd 3 days, 4h after carrageenan, listed as From II
[7] = 10 mg/kg p.o. qd 3 days, 5h after carrageenan, listed as From II
[8] = 10 mg/kg p.o. qd 3 days, 6h after carrageenan, listed as From II
[9] = 20 mg/kg p.o. qd 3 days, 3h after carrageenan, listed as From II
[10] = 20 mg/kg p.o. qd 3 days, 4h after carrageenan
[11] = 20 mg/kg p.o. qd 3 days, 4h after carrageenan, listed as From II
[12] = 20 mg/kg p.o. qd 3 days, 5h after carrageenan, listed as From II
[13] = 20 mg/kg p.o. qd 3 days, 6h after carrageenan, listed as From II
[14] = female rats, p.o. 20 mg/kg, mean ± SD (n = 3), 20 mg/kg
[15] = male rats, p.o. 20 mg/kg, mean ± SD (n = 3), 20 mg/kg

CC(C)=CCCC(C)(OC1OC(CO)C(O)C(O)C1O)C1CCC2(C)C1C(O)CC1C3(C)CCC(O)C(C)(C)C3CCC12C [Form II, 20-O-β-D-glucopyranosyl-20(S)-protopanaxadiol]
AUC(0-t) ([1]; female rats): 4557.73 ng·h/mL and 1338.42 ng·h/mL and 1445.59 ng·h/mL | AUC(0-∞) ([1]; female rats): 4823.11 ng·h/mL and 1371.40 ng·h/mL and 1459.17 ng·h/mL | CLz/F ([1]; female rats): 69.2 mL/min/kg and 243 mL/min/kg and 228.5 mL/min/kg | Cmax ([1]; female rats): 777.00 ng/mL and 209.65 ng/mL and 392.12 ng/mL | Vz/F ([1]; female rats): 23.70 L/kg and 62.95 L/kg and 49.26 L/kg | AUC(0-t) ([1]; male rats): 1095.34 ng·h/mL and 774.36 ng·h/mL and 1703.47 ng·h/mL | AUC(0-∞) ([1]; male rats): 1198.51 ng·h/mL and 780.14 ng·h/mL and 1726.92 ng·h/mL | CLz/F ([1]; male rats): 278.2 mL/min/kg and 427.3 mL/min/kg and 193 mL/min/kg | Cmax ([1]; male rats): 187.99 ng/mL and 197.22 ng/mL and 311.79 ng/mL | t1/2z ([1]; male rats): 2.17 h and 2.39 h and 4.24 h | paw volume ([2]; 10 mg/kg p.o. qd 3 days, 0h (before carrageenan), listed as From II): 1.57±0.12 | paw edema [2, 5]: 55.25±18.20% | paw volume [2, 5]: 2.41±0.16 | edema inhibition [2, 5]: 14.03% | paw edema [2, 6]: 47.34±11.94% | paw volume [2, 6]: 2.30±0.14 | edema inhibition [2, 6]: 24.09% | paw edema [2, 7]: 33.73±13.72% | paw volume [2, 7]: 2.08±0.12 | edema inhibition [2, 7]: 34.84% | paw edema [2, 8]: 27.25±10.94% | paw volume [2, 8]: 1.98±0.08 | edema inhibition [2, 8]: 30.70% | paw volume ([2]; 20 mg/kg p.o. qd 3 days, 0h (before carrageenan), listed as From II): 1.65±0.14 | paw edema [2, 9]: 45.81±8.11% | paw volume [2, 9]: 2.40±0.15 | edema inhibition [2, 9]: 28.72% | paw edema [2, 10]: 39.7 ± 6.4% | paw edema [2, 11]: 39.71±6.48% | paw volume [2, 11]: 2.30±0.14 | edema inhibition [2, 10]: 36.3% | edema inhibition [2, 11]: 36.33% | paw edema [2, 12]: 29.62±8.06% | paw volume [2, 12]: 2.13±0.15 | edema inhibition ([2]; 20 mg/kg p.o. qd 3 days, 5h after carrageenan): 42.7% | edema inhibition [2, 12]: 42.77% | paw edema [2, 13]: 23.59±8.59% | paw volume [2, 13]: 2.03±0.14 | edema inhibition ([2]; 20 mg/kg p.o. qd 3 days, 6h after carrageenan): 40.0% | edema inhibition [2, 13]: 40.00% | DSC onset of the decomposition endotherm (thermodynamical stability) [3]: 263.1 °C | maximum differences of the average Cmax and AUC(0–∞) values, form II compared to form IV ([4]; female groups, p.o. 20 mg/kg): 2.1 fold | Fabs (absolute bioavailability) ([4]; female rats): 7.87% | t1/2z ([4]; female rats, p.o. 20 mg/kg, individual rats 1-3, 20 mg/kg): 3.96 h and 2.99 h and 2.49 h | AUC(0–t) [4, 14]: 2447.2 ± 1828.5 ng·h/mL | AUC(0–∞) [4, 14]: 2551.23 ± 1967.99 ng·h/mL and 2551.2 ± 1968.0 ng·h/mL | CLz/F [4, 14]: 180 ± 96.5 mL/min/kg | Cmax [4, 14]: 459.59 ± 289.63 ng/mL and 459.6 ± 289.6 ng/mL | Vz/F [4, 14]: 45.3 ± 20.0 L/kg | t1/2z [4, 14]: 3.15 ± 0.75 h and 3.2 ± 0.75 h | AUC(0-t) ([4]; female, Sprague-Dawley, rat, plasma, po, 20 mg/kg, female rats, p.o. 20 mg/kg, mean ± SD (n = 3)): 2450 ± 1830 ng·h/mL | CL/F ([4]; female, Sprague-Dawley, rat, plasma, po, 20 mg/kg, female rats, p.o. 20 mg/kg, mean ± SD (n = 3), read-out: CLz/F (converted)): 180 mL/min/kg | maximum differences of the average Cmax and AUC(0–∞) values, form II compared to form IV ([4]; male groups, p.o. 20 mg/kg): 1.6 fold | Fabs (absolute bioavailability) ([4]; male rats): 4.07% | Vz/F ([4]; male rats, p.o. 20 mg/kg, individual rats 1-3, 20 mg/kg): 102.18 L/kg and 80.31 L/kg and 39.93 L/kg | AUC(0–t) [4, 15]: 1191.06 ± 471.90 ng·h/mL and 1191.1 ± 471.90 ng·h/mL | AUC(0–∞) [4, 15]: 1235.2 ± 474.45 ng·h/mL | CLz/F [4, 15]: 299.5 ± 118 mL/min/kg and 300 ± 118 mL/min/kg | Cmax [4, 15]: 232.33 ± 68.97 ng/mL and 232.3 ± 68.97 ng/mL | Vz/F [4, 15]: 74.14 ± 31.58 L/kg and 74.1 ± 31.6 L/kg | t1/2z [4, 15]: 2.93 ± 1.14 h and 2.9 ± 1.1 h | AUC(0-inf) ([4]; male, Sprague-Dawley, rat, plasma, po, 20 mg/kg, male rats, p.o. 20 mg/kg, mean ± SD (n = 3)): 1240 ± 474 ng·h/mL

Source: PMC8037814, “Polymorphic Characterization, Pharmacokinetics, and Anti-Inflammatory Activity of Ginsenoside Compound K Polymorphs” (Molecules, 2021)
